Values of other authors as cited in patent US7195778B2, “Drug delivery system for zero order, zero order-biphasic, ascending or descending drug delivery” (Teva Pharmaceutical Industries Ltd., priority 2001, dated 2007).
Where a name gives a salt, the structure may show the parent alone. Read-outs that look alike come from different tables or passages of the source.

In the case of `COC(=O)C(c1ccccc1)C1CCCCN1` (stereo not shown) [methylphenidate HCl], the drug excreted (adults) is listed as 80%, the drug excreted (children) is listed as 67% and the time to peak (children, immediate release) is listed as 1.9 h. For the same molecule, the “time to peak, range” value (children, immediate release) was 0.3 to 4.4 h, the primary adverse events (chronic dosing) was “nervousness, insomnia and appetite suppression” and the pharmacokinetic half-life (immediate release) was 2 to 3 h. For the same molecule, the “AD/HD patients responding positively” value (reports) was 70–90%.
